“Also recorded” adds a separate entry of the source.
Tests used:
Sir2Tm wild type [1] = target: T1, Sir2Tm wild type (Thermotoga maritima, UniProt Q9WYW0); assay type: biochemical; set-up: made in house; host or cells: E. coli
Experimental: (§1) The deacetylation activity was measured using the Fluor de Lys-SirT1 assay (Biomol), using a peptide containing amino acids 379-RHK-K(Ac)-382 of p53 as substrate. […] The reactions were carried out at 37° C. in a 50 μL reaction volume containing 50 mM Tris, pH 8, 50 mM NaCl and 400 μM fluorolabeled peptide (˜10 times KM). […] Reactions were done at least in triplicate. The data were fitted to the Michaelis-Menten equation using SigmaPlot to obtain the kinetic constants. […] The data were fitted to equation (1) using SigmaPlot (SYSTAT) to calculate the IC50 values:
(§2) vI=v0(1−(I/(IC50+I))) Equation (1)
(§3) where v0 is the initial rate of the uninhibited reaction and vI is the initial rate of the reaction at concentration I of inhibitor.

Sir2Tm-D101N mutant [2] = target: T2, Sir2Tm-D101N mutant (Thermotoga maritima, UniProt Q9WYW0, D101N); assay: biochemical; assay type: biochemical; set-up: made in house; host or cells: E. coli; conditions: for apparent kcat of cosubstrate-dependent deacetylation / Km / IC50: Sir2Tm-D101N mutant; for Km: 400 μM fluorolabeled peptide, read-out: apparent KM for cosubstrate; for IC50: fluorolabeled p53 peptide, 37° C.
Experimental: as §1, §2, §3

Sir2Tm wild type [3] = target: T1, Sir2Tm wild type; conditions: 0.1 mM ^14C-labelled base, 2 mM NAD^+, 500 μM acetylated p53 peptide, 37° C., 3 hours
Experimental: (§4) After incubation at 37° C. for 3 hours, 8 μL of each reaction was spotted on a Polygram SIL-G TLC plate (Machevey-Nagel, 20×20). The plate was developed in a pre equilibrated chamber with 80:20 ethanol:2.5 M ammonium acetate. After chromatography, the plate was air dried and exposed to a phosphorimaging screen overnight.

Sir2Tm-D101N mutant [4] = target: T2, Sir2Tm-D101N mutant; conditions: Sir2Tm-D101N mutant 2.5 mg/mL; 0.1 mM ^14C-labelled base, 2 mM NAD^+, 500 μM acetylated p53 peptide, 37° C., 3 hours
Experimental: as §4

T2 sequence (Q9WYW0 whole entry D101N): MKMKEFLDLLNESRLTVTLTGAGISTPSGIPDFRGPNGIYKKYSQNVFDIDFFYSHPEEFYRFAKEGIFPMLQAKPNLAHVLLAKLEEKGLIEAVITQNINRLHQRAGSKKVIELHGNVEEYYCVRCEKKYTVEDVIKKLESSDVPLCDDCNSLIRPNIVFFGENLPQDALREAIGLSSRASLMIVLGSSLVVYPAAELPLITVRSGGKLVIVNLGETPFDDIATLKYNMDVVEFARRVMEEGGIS
T1 sequence (Q9WYW0 whole entry, the tested form may be a part): as the sequence (Q9WYW0 whole entry D101N) above, with N101D counted along it

NC(=O)c1ccc[n+]([C@@H]2O[C@H](COP(=O)([O-])OP(=O)(O)OC[C@H]3O[C@@H](n4cnc5c(N)ncnc54)[C@H](O)[C@@H]3O)[C@@H](O)[C@H]2O)c1 [NAD^+, nicotinamide adenine dinucleotide]
kcat of cosubstrate-dependent deacetylation (Sir2Tm wild type [1]): 0.170 ± 0.006 s⁻¹
Km (Sir2Tm wild type [1]; 400 μM fluorolabeled peptide, read-out: KM for cosubstrate): 53 ± 11 µM
apparent kcat of cosubstrate-dependent deacetylation (Sir2Tm-D101N mutant [2]): (1.8±0.1)×10^−3 s^−1
Km (Sir2Tm-D101N mutant [2]): 1170 ± 180 µM
fold increase of KM, D101N mutant versus wild type (Sir2Tm-D101N mutant [2]; Sir2Tm-D101N versus wild type Sir2Tm): 22 fold

NC(=O)c1cccnc1 [nicotinamide]
base exchange activity (formation of labelled dinucleotide) (Sir2Tm wild type [3]): could catalyze formation of labeled NAD^+
base exchange activity (formation of labelled dinucleotide) (Sir2Tm-D101N mutant [4]): could catalyze formation of labeled NAD^+

Nc1ncnc2c1ncn2[C@@H]1O[C@H](COP(=O)(O)OP(=O)(O)OC[C@H]2O[C@@H]([n+]3cccc(C(=O)O)c3)[C@H](O)[C@@H]2O)[C@@H](O)[C@H]1O [NAAD, nicotinic acid adenine dinucleotide]
deacetylation activity with the dinucleotide as cosubstrate (Sir2Tm wild type [1]; up to 2.56 mg/ml enzyme, incubation 4 hours): no detectable deacetylation activity; also recorded: undetectable
apparent kcat of cosubstrate-dependent deacetylation (Sir2Tm-D101N mutant [2]): (1.1±0.1)×10^−3 s^−1
Km (Sir2Tm-D101N mutant [2]): 617 ± 43 µM

O=C(O)c1cccnc1 [nicotinic acid]
base exchange activity (formation of labelled dinucleotide) (Sir2Tm wild type [3]): cannot do; also recorded: no detectable formation of NAAD
base exchange activity (formation of labelled dinucleotide) (Sir2Tm-D101N mutant [4]): able to synthesize ^14C-labelled NAAD
inhibition of wild type enzyme deacetylation activity (Sir2Tm wild type [1]; inhibitor added to concentrations of up to 100 mM): fail to inhibit
IC50 (Sir2Tm-D101N mutant [2]; IC50, inhibition of NAAD-dependent deacetylation activity, 2 mM NAAD): 6.2 ± 2 mM
IC50 (Sir2Tm-D101N mutant [2]; IC50, inhibition of NAD^+-dependent deacetylation activity, 2 mM NAD^+): 11.3 ± 3.3 mM

Source: patent publication US20090012130A1, “Strategies for Designing Drugs that Target the Sir2 Family of Enzymes” (priority 2005, published 2009)
